From patent US20240366571A1, “MODULATORS OF SK4 POTASSIUM CHANNEL AND USES THEREOF” (Ramot at Tel-Aviv University Ltd., priority 2022, published 2024) come the findings set out here.

The assay concerns isolated rat hearts. The assay is described as follows: Langendorff perfused isolated rat hearts: electrophysiology and hemodynamics. The note with it: 10 μM. As for the experimental part:
Animals: Adult male Sprague-Dawley rats (n=56, 200-250 grams) and Guinea pigs (n=19, 400-700 grams) obtained from Envigo Laboratories (Jerusalem, Israel) were bred and grown in Ben-Gurion University of the Negev, Israel. Experiments in rats and guinea pigs were approved by the institutional ethics committee of Ben-Gurion University of the Negev, Israel (Protocol No. IL-24-05-2020(D) and were carried out in strict accordance with the Guide for the Care and Use of Laboratory Animals of the National Institutes of Health. The animals were kept under standardized conditions: 12:12 light: dark cycles at 20-24° C. and 30-70% relative humidity.
Perfused isolated hearts—Langendorff method: The isolated heart experiment setup was performed as described in Etzion et al., Am J Physiol Heart Circ Physiol (2008) 295, H1460-1469; and Mor et al., J Pharmacol Exp Ther (2013) 344, 59-67.]. Briefly, each animal was anesthetized with 2% isoflurane and an intraperitoneal (IP) injection of pentobarbital (60 mg/kg), followed by IP injection of Heparin (1000 U/kg). The heart was rapidly excised and placed into ice-cold Tyrode's buffer solution (consisted of 140 mM NaCl, 5.4 mM KCl, 0.5 mM MgCl2, 2.5 mM CaCl2, 0.39 mM NaH2PO4, 10 mM HEPES and 11 mM glucose, and titrated to pH 7.4 with NaOH). The aorta was cannulated and connected to a pre-heated (37° C.) and oxygenated perfusion system with Tyrode's solution while perfusion pressure was maintained at about 70 mmHg throughout the experiment. Prior to the experiment, the heart was left in Tyrode's solution to stabilize for 20 minutes for hemodynamic measurements, the left atrial appendage was excised, and a collapsed latex balloon was inserted into the left ventricle (LV) through the mitral valve. Once positioned, the balloon was filled with double distilled water reaching an end-diastolic pressure of 10-15 mmHg. Coronary perfusion pressure and LV pressure were recorded by a pressure amplifier (ETH-256C amplifier and B-100 probes, iWorx, NH, USA). Electrophysiological signals were recorded from the high right atrium (HRA) via a miniature quadripolar hook electrode (for simultaneous pacing and recording) and from the LV via a bipolar hook electrode. Electrical signals were filtered (1-2 kHz) and recorded by two voltage amplifiers (Model 3000, A-M Systems, Carlsberg, WA, USA). Signals were interfaced with a PC using an A/D converter (PCI-6024E, National Instruments, Austin TX, USA) and a custom-designed program developed with LabVIEW programing language (National Instruments, Austin, TX, USA) to control signal acquisition, data saving and off-line analysis. Measured physiological parameters during the experiment included perfusion flow (ml/minute) as a marker for coronary perfusion pressure, LV developed pressure, dP/dt±(representing the rate of rise of left ventricular pressure during isovolumetric contraction as a marker for LV contractility), heart rate, PR, and RR intervals. Tram-34 and BA6b9 were applied for a 20-minutes incubation period and physiological parameters were recorded.
Effective refractory period measurements: Using both custom-made quadripolar electrode inserted on the HRA and two bipolar electrodes (recording and pacing) on the LV, allowed measurement of the effective refractory period (ERP) at the atrial level (atrial effective refractory period, AERP), atrioventricular level (AVERP), and ventricular level (VERP). For ERP measurement, a programmed S1S2 stimulation protocol was performed using double diastolic threshold intensity. The protocol consisted of ten S1-S2 intervals of 150 milliseconds (ms) followed by an S1-S2 interval that was reduced by 1 ms each time, until pacing capture failed three consecutive times. AERP, AVERP, and VERP were measured and recorded prior and after exposure to the used inhibitor, either Tram-34 or BA6b9.

In the case of `CCCCCCCn1c(=O)oc2ccccc21` [BA6b9, 3-heptylbenzo[d]oxazol-2(3H)-one], the “AERP (effect)” value is “prolonged”, the “AVERP (effect)” value is “prolonged”, the “VERP (effect)” value is “did not change” and the “coronary flow (perfusion flow velocity)” value was “minimal effect”. Also, the “left ventricular filling pressure (developed pressure)” value was “reduced”, the “maximal pressure change in left ventricular contractility (dP/dt max)” value is recorded as “does not effect it” and the “minimal pressure change in left ventricular contractility (dP/dt min)” value is reported as “does not effect it”. For the same compound, for the setting “from 56 ms before compound”, the AERP turned out to be 63 ms and the PR interval is on record as 68 ms. The compound also showed an AVERP (from 84 ms before compound) of 89 ms. Moreover, the heart rate (from 228 bpm before compound) worked out at 196 bpm.
